Assay results: patent EP4729516A1, “S[…] DERIVATIVE, INTERMEDIATE, PREPARATION METHOD THEREFOR AND USE THEREOF” (Jiangsu NHWA Pharmaceutical Co., Ltd, priority 2023, dated 2024)

Legend:
Male SD rats [1] = assay: Hypnotic efficacy: loss of righting reflex (LORR) in rats; format: in vivo
Protocol: The sequential method was used to determine the ED50 (median effective dose) for the loss of righting reflex (LORR) by the compounds of the present disclosure in rats: Male SD rats, weighing 200-300 grams, were used. Each compound was dissolved in normal saline and administered via tail vein injection at an initial dose at a constant injection rate over 10 s (one rat per dose). […] This process was repeated, and the results were recorded in the AOT425 Statpm software until the software could calculate the ED50, at which point the experiment was terminated. The hypnotic efficacy of the compounds of the present disclosure was evaluated using ED50 with lower ED50 values indicating stronger efficacy.
Comparison of onset time and duration: Male SD rats, weighing 200-300 grams, were used. Each compound was dissolved in normal saline and administered via tail vein injection at a constant injection rate over 10 s, with 10 rats per group. […] The onset time and duration were recorded.
The onset time refers to the period from the completion of injection to when the rat is placed in a supine position, with the criterion for loss of righting reflex defined as the rat's inability to spontaneously revert to a prone position using its forelimbs and maintained for ≥10 s, which serves as an indicator of compound efficacy; the duration refers to the sustained period during which the rat remains in a state of losing righting reflex. The spontaneous recovery of the righting reflex in the rat is considered the cessation of the efficacy.

Male SD rats [2] = assay: Fluctuations in blood pressure and heart rate after administration; format: in vivo
Protocol: Male SD rats, weighing 250-300 g, with 4 rats per group, were maintained under general anesthesia by isoflurane inhalation. Femoral artery cannulation was performed, and blood pressure and heart rate were monitored using a Powerlab data acquisition and analysis system. 30 min after the baseline values stabilized, the baseline mean arterial pressure (MAP0) and baseline heart rate (HR0) were measured. The rats were given a solution of each compound in normal saline via tail vein injection (the dose of each compound was the same as in Test Example 3, with rapid intravenous injection over 10 s). Blood pressure and heart rate were continuously recorded for 90 min. MAP^+ (the difference between the maximum mean arterial pressure (MAPmax) and MAP0), MAP^-(the difference between the minimum mean arterial pressure (MAPmin) and MAP0), and HR^- (the difference between the minimum heart rate (HRmin) and HR0) within 90 min were calculated. For calculation, the maximum increase rate of mean arterial pressure = MAP^+/MAP0 × 100%; the maximum decrease rate of mean arterial pressure = MAP^-/MAP0 × 100%; and the maximum decrease rate of heart rate = HR^-/HR0 × 100%.

[3] = in words, compared with dexmedetomidine hydrochloride, rats
[4] = loss of righting reflex, male SD rats, tail vein injection, dose twice the ED50, 10 rats per group
[5] = isoflurane-anesthetized male SD rats, tail vein injection, dose as in Test Example 3
[6] = isoflurane-anesthetized male SD rats, tail vein injection, dose as in Test Example 3, within 90 min

CC(c1c[nH]cn1)c1cccc2c1COC2 (stereo not drawn) [Compound 5, 4-[1-(1,3-Dihydroisobenzofuran-4-yl)ethyl]-1H-imidazole]
ED50 (Male SD rats [1]; Rattus norvegicus, loss of righting reflex, male SD rats, tail vein injection over 10 s, sequential method): 0.0625 mg/kg
Duration (Male SD rats [1]; [3]): significantly shorter
hypnotic onset time (Male SD rats [1]; [3]): comparable to or slightly longer
Duration (Male SD rats [1]; [4]): 531.10±559.16 S
Onset time (Male SD rats [1]; [4]): 99.20±29.98 S
induce sleep in rats (Male SD rats [1]; time to induce sleep, rats, dose twice the ED50): ≤ 5 min
maximum decrease rates of HR (Male SD rats [2]; [3]): lower
maximum increase rates of MAP (Male SD rats [2]; [3]): lower
recovery of HR (Male SD rats [2]; [3]): faster
HR decrease Duration (Male SD rats [2]; [5]): 30 min
MAP increase Duration (Male SD rats [2]; [5]): 2 min
HR decrease Maximum decrease rate (Male SD rats [2]; [6]): 24.7±4.5 %
MAP decrease Maximum decrease rate (Male SD rats [2]; [6]): 7.4±9.2%
MAP increase Maximum increase rate (Male SD rats [2]; [6]): 19.9±6.3%
decreases in MAP (Male SD rats [2]; no significant decreases greater than the stated value, rats): ≤ 10%
